The values below come from ChEMBL document CHEMBL4346692, “Anti-PqsR compounds as next-generation antibacterial agents against Pseudomonas aeruginosa: A review” (Eur J Med Chem, 2019).

In data set [1] the target is T1, 2-heptyl-4(1H)-quinolone synthase PqsD (Pseudomonas aeruginosa, UniProt A0A0C7ACN7).
T1 sequence (A0A0C7ACN7 whole entry): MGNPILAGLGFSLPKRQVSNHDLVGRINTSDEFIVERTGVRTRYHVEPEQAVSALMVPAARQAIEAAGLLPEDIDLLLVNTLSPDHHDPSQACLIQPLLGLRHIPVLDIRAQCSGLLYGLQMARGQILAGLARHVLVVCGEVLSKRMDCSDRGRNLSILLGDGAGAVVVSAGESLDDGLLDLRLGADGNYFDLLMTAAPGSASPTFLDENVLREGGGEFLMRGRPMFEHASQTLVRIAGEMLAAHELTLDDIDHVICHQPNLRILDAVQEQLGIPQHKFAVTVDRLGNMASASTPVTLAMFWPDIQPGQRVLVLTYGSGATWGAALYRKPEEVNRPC
Put plainly: Inhibition of Pseudomonas aeruginosa PqsD.

Data set [2] concerns the target T2, Transcriptional regulator MvfR (Pseudomonas aeruginosa PA14, UniProt A0A072ZLE6).
T2 sequence (A0A072ZLE6 whole entry): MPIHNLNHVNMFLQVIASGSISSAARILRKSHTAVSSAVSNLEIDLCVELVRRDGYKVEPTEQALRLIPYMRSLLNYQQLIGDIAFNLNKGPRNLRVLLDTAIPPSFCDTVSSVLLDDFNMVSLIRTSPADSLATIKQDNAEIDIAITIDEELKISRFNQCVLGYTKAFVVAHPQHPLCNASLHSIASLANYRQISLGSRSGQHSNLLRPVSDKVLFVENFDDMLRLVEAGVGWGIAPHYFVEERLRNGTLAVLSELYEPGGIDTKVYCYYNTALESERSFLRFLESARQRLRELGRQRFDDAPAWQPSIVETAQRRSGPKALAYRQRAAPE
Put plainly: Inhibition of Pseudomonas aeruginosa PqsR.

For data set [3], the target named is T2, Transcriptional regulator MvfR. In words: Antagonist activity at His6 -tagged Pseudomonas aeruginosa PqsR CBD domain expressed in Escherichia coli Rosetta 2 (DE3).
Data set [4] in a line: Agonist activity at Pseudomonas aeruginosa pqsA delta frame deletion mutant.
Data set [5] is described as follows: Antagonist activity at His6 -tagged Pseudomonas aeruginosa PqsR C87 mutant expressed in Escherichia coli BL21 (DE3) cells by surface plasma resonance method.
A short description of data set [6]: Half life in rat hepatic microsomes at 1 uM in presence of NADPH by UPLC-MS/MS analysis. The note with it: liver microsomes. In kind it is ADME, Microsome.
A short description of data set [7]: Half life in human hepatic microsomes at 1 uM in presence of NADPH by UPLC-MS/MS analysis. The class given is ADME, Microsome. Conditions: liver microsomes. (Liver microsomes are a subcellular fraction often used to study metabolism.)
For data set [8], the target named is T3, Transcriptional regulator MvfR (Pseudomonas aeruginosa PA14) (UniProt A0A072ZLE6).
T3 sequence (whole entry): T2 sequence (A0A072ZLE6 whole entry)
In words: Inhibition of Pseudomonas aeruginosa PqsR relative to control. Conditions: concentration not given here.

Data set [9] in a line: Binding affinity to Pseudomonas aeruginosa His6/Sumo-tagged PqsR C87 mutant expressed in Escherichia coli BL21 (DE3) […] cells by surface plasma resonance method.

pEC50, pIC50, pKd: −log10 of the molar value.

As usually defined, the pIC50 is the IC50 on a negative log10 scale, so that one unit is a factor of ten. A higher pIC50 goes with a small IC50. `CS(=O)(=O)c1nccc(-n2cnnn2)n1`: the pIC50 is 4.68 in [1] and 4.82 in [2]. For `CCCCCCCCCc1nc2cc(Cl)ccc2c(=O)n1N`, the pIC50 in [3] was 5.30. As usually defined, the pEC50 is −log10 of the EC50, conventionally taken in molar units. For the compound `CCCCCCCCCc1nc2cc(F)ccc2c(=O)n1OC`, the pEC50 in data set [4] is 5.66. As to `CCCCCCCc1[nH]c2ccccc2c(=O)c1O`, in data set [4], the pEC50 was 5.72. In turn, `CC(C)(C)c1ccc(C(=O)NO)cc1` had a pIC50 in data set [5] of 4.63.

A word on the half-life: it is the time needed for the level to fall by half in the phase considered. On to `O=CN1N=C(c2ccccc2)CC1c1cccc(Nc2ccnc3cc(Cl)ccc23)c1` (centres undefined), for which the half-life at 1 µM in data set [6] and in data set [7] was under 30 min throughout. In the case of `CCCCCCCCCc1nc2cc(F)ccc2c(=O)n1N`, in data set [3], the negative logarithm of the IC50 (pIC50) is 5.41. Same read-out and setting: then `CCCCCCCCCc1nc2cc(F)c(F)cc2c(=O)n1N`, with 5.92. Broadly, the inhibition is the share of the control response that was lost under treatment. Low readings indicate a weak effect, high ones a strong effect. Turning to `CCCCCCS(=O)(=O)c1nccc(-n2ccnn2)n1`, the figures for the pIC50 in [1] and in [2] were 5.77 and 4.30, respectively. Moreover, the inhibition in data set [8] worked out at 47%. What is called pKd is the Kd on a negative log10 scale, so that one unit is a factor of ten. Higher therefore signals a low Kd. Turning to `CCCCCCCc1cc(=O)c2cc(C(F)(F)F)ccc2[nH]1`, the pKd in data set [9] is 7.24.
